Measured values published in paper PMC8954547, “Nonpeptidic Z360-Analogs Tagged with Trivalent Radiometals as Anti-CCK2R Cancer Theranostic Agents: A Preclinical Study” (Pharmaceutics, 2022).

Experiments:
[1] = tested on: SCID mice bearing twin HEK293-CCK2i4svR and wtHEK293 tumors; test: Biodistribution in SCID mice bearing twin HEK293-CCK2i4svR and wtHEK293 xenografts; format: in vivo
Procedure: Inocula containing a suspension of freshly harvested HEK293-CCK2i4svR/wtHEK293 cells (150 μL, 1.8 × 10^7/1.4 × 10^7 cells, respectively, in normal saline) were subcutaneously (sc) injected in the right and left flanks of male SCID mice (24.5 ± 2.3 g body weight, six weeks of age on arrival day, NCSR “Demokritos” Animal House Facility). Well-palpable tumors (0.42 ± 0.37/0.25 ± […], respectively) were grown at the inoculation site 3–4 weeks later, and biodistribution was conducted. On the day of biodistribution, animals were divided into groups of four and received the radioligand through the tail vein as a bolus (100 μL, containing each of: i. 78–91 kBq [^67Ga]GAS1/2/3 corresponding to 7–17 pmol GAS1/2/3; ii. 74–92 kBq [^111In]GAS1/2/3 corresponding to 20–25 pmol GAS1/2/3; iii. 730 kBq [^177Lu]Lu-GAS1/3 corresponding to 40 pmol GAS1/3, in-vehicle: saline/EtOH 9/1 v/v). Animals were euthanized at predetermined time intervals depending upon the radionuclide applied (for [^67Ga]Ga-GAS1/2/3: 1, 4 and 24 h pi; for [^111In]In-GAS1/2/3: 4 and 24 h pi–two extra groups of mice receiving gelofusine together with [^111In]In-GAS1/2 at 4 and 24 h pi were included; and for [^177Lu]Lu-GAS1/3: 4, 24, 48, 72 and 96 h pi). Mice were dissected, and blood samples, organs of interest and tumors were rapidly collected, weighted and counted in the gamma counter. Biodistribution data was calculated as the percentage of the administered dose per gram tissue (%IA/g) with the aid of suitable standards of the administered dose and the Microsoft Excel program. Results are presented as mean % IA/g values ± SD, n = 4 per time point, as determined by the PRISM^TM 6.0 GraphPad software (San Diego, CA, USA).

[2] = Radioligand stability in mice (radio-HPLC of blood and urine); format: in vivo; conditions: mean ± SD
Procedure: The formation of radiometabolites which can be detected in the blood was tested in blood samples collected 5 min post-injection (pi) of each of the radioligands [^67Ga]Ga/[^111In]In/[^177Lu]Lu-GAS1/3 and [^67Ga]Ga/[^111In]In-GAS2. For this study, in-house male Swiss albino mice (body weight: 30 ± 5 g, provided by the NCSR “Demokritos” Animal House) were used in groups of three. The animals received, through the tail vein, a 100-μL bolus containing each radioligand tested (2.5–3 nmol of the total conjugate in vehicle: saline/EtOH 9/1 v/v, corresponding to: up to 11 MBq for In-111, up to 13 MBq for Ga-67 and up to 74 MBq for Lu-177). Mice were euthanized, and blood was collected directly from the heart using a prechilled penicillin syringe and transferred in a prechilled EDTA-containing Eppendorf Protein LoBind® tube on ice (40 µL, 50 mM Na2EDTA solution). After centrifugation (10 min, 2000× g/4 °C, in a Hettich, Universal 320R, centrifuge), the blood plasma was collected, mixed with chilled MeCN in a 1/1 v/v ratio and centrifuged again (10 min, 15,000× g/4 °C). Supernatants were collected and concentrated to a small volume (≈50–100 μL) under a gentle N2-flux at 40 °C. They were then diluted with physiological saline (≈400 μL) and filtered through a Millex GV filter (0.22 μm, 13 mm Ø, Millipore, Milford, CT, USA). Aliquots of the filtrate were analyzed by radio-RP-HPLC using a Waters Symmetry Shield RP18 cartridge column (5 μm, 3.9 mm × 20 mm) eluted at a flow rate of 1.0 mL/min with the following gradient: 100% A/0% B to 55% A/45% B in 45 min; A = 0.1% aqueous TFA (v/v) and B = MeCN (system 2). The elution time (tR) of each parent radioligand was determined by coinjection of blood samples with an aliquot of the labeling solution on the HPLC column. Results were calculated as the average percentage of intact radioligand ± SD derived from three independent experiments.
Following the same injection protocol, radioligands were administered in additional groups of mice, but this time animals were euthanized 30 min pi. The urine was immediately collected from the bladder using a prechilled syringe and transferred as before in a prechilled EDTA-containing Eppendorf Protein LoBind® centrifuge tube on ice (40 µL, 50 mM Na2EDTA solution) and 0.1 mL of physiological saline. Urine proteins were precipitated by adding chilled MeCN in a 1/1 v/v ratio followed by a 10 min centrifugation step (15,000× g/4 °C). The supernatant was then collected and treated following the blood sample workup procedure. Aliquots of the Millex-GV filtrate (containing >90% of total urine activity) were analyzed by radio-HPLC, adopting the aforementioned conditions. Results were calculated as the average percentage of intact radioligand ± SD derived from three independent experiments.

CC(C)(C)C(=O)CN1C(=O)[C@H](NC(=O)Nc2cccc(C(=O)NCCOCCOCCOCCNC(=O)[C@H](CCC(=O)O)NC(=O)CN3CCN(CC(=O)[O-])CCN(CC(=O)[O-])CCN(CC(=O)[O-])CC3)c2)CN(C2CCCCC2)c2ccccc21.[177Lu+3] (stereo in doubt) [[^177Lu]Lu-GAS1]
Biodistribution, Blood ([1]; 4 h pi): 0.99 ± 0.20 %IA/g | Biodistribution, CCK2i4svR(+) Tumor ([1]; 4 h pi): 8.74 ± 1.60 %IA/g | Biodistribution, CCK2i4svR(-) Tumor ([1]; 4 h pi): 1.01 ± 0.30 %IA/g | Biodistribution, Femur ([1]; 4 h pi): 0.28 ± 0.03 %IA/g | Biodistribution, Heart ([1]; 4 h pi): 0.41 ± 0.07 %IA/g | Biodistribution, Intestines ([1]; 4 h pi): 1.65 ± 0.28 %IA/g | Biodistribution, Kidneys ([1]; 4 h pi): 3.70 ± 0.62 %IA/g | Biodistribution, Liver ([1]; 4 h pi): 2.21 ± 0.44 %IA/g | Biodistribution, Lungs ([1]; 4 h pi): 0.94 ± 0.15 %IA/g | Biodistribution, Muscle ([1]; 4 h pi): 0.12 ± 0.02 %IA/g | Biodistribution, Pancreas ([1]; 4 h pi): 0.56 ± 0.11 %IA/g | Biodistribution, Spleen ([1]; 4 h pi): 0.59 ± 0.07 %IA/g | Biodistribution, Stomach ([1]; 4 h pi): 0.37 ± 0.05 %IA/g | Biodistribution, Blood ([1]; 24 h pi): 0.06 ± 0.00 %IA/g | Biodistribution, CCK2i4svR(+) Tumor ([1]; 24 h pi): 2.09 ± 0.50 %IA/g | Biodistribution, CCK2i4svR(-) Tumor ([1]; 24 h pi): 0.29 ± 0.20 %IA/g | Biodistribution, Femur ([1]; 24 h pi): 0.11 ± 0.01 %IA/g | Biodistribution, Heart ([1]; 24 h pi): 0.12 ± 0.00 %IA/g | Biodistribution, Intestines ([1]; 24 h pi): 0.32 ± 0.07 %IA/g | Biodistribution, Kidneys ([1]; 24 h pi): 1.05 ± 0.12 %IA/g | Biodistribution, Liver ([1]; 24 h pi): 0.51 ± 0.07 %IA/g | Biodistribution, Lungs ([1]; 24 h pi): 0.34 ± 0.03 %IA/g | Biodistribution, Muscle ([1]; 24 h pi): 0.04 ± 0.00 %IA/g | Biodistribution, Pancreas ([1]; 24 h pi): 0.10 ± 0.01 %IA/g | Biodistribution, Spleen ([1]; 24 h pi): 0.32 ± 0.01 %IA/g | Biodistribution, Stomach ([1]; 24 h pi): 0.14 ± 0.03 %IA/g | Biodistribution, Blood ([1]; 48 h pi): 0.04 ± 0.01 %IA/g | Biodistribution, CCK2i4svR(+) Tumor ([1]; 48 h pi): 0.97 ± 0.20 %IA/g | Biodistribution, CCK2i4svR(-) Tumor ([1]; 48 h pi): 0.17 ± 0.02 %IA/g | Biodistribution, Femur ([1]; 48 h pi): 0.09 ± 0.01 %IA/g | Biodistribution, Heart ([1]; 48 h pi): 0.07 ± 0.01 %IA/g | Biodistribution, Intestines ([1]; 48 h pi): 0.08 ± 0.01 %IA/g | Biodistribution, Kidneys ([1]; 48 h pi): 0.38 ± 0.07 %IA/g | Biodistribution, Liver ([1]; 48 h pi): 0.32 ± 0.04 %IA/g | Biodistribution, Lungs ([1]; 48 h pi): 0.29 ± 0.04 %IA/g | Biodistribution, Muscle ([1]; 48 h pi): 0.03 ± 0.00 %IA/g | Biodistribution, Pancreas ([1]; 48 h pi): 0.05 ± 0.01 %IA/g | Biodistribution, Spleen ([1]; 48 h pi): 0.26 ± 0.06 %IA/g | Biodistribution, Stomach ([1]; 48 h pi): 0.08 ± 0.01 %IA/g | Biodistribution, Blood ([1]; 72 h pi): 0.04 ± 0.00 %IA/g | Biodistribution, CCK2i4svR(+) Tumor ([1]; 72 h pi): 0.35 ± 0.23 %IA/g | Biodistribution, CCK2i4svR(-) Tumor ([1]; 72 h pi): 0.18 ± 0.05 %IA/g | Biodistribution, Femur ([1]; 72 h pi): 0.06 ± 0.00 %IA/g | Biodistribution, Heart ([1]; 72 h pi): 0.05 ± 0.01 %IA/g | Biodistribution, Intestines ([1]; 72 h pi): 0.06 ± 0.02 %IA/g | Biodistribution, Kidneys ([1]; 72 h pi): 0.14 ± 0.04 %IA/g | Biodistribution, Liver ([1]; 72 h pi): 0.23 ± 0.02 %IA/g | Biodistribution, Lungs ([1]; 72 h pi): 0.21 ± 0.03 %IA/g | Biodistribution, Muscle ([1]; 72 h pi): 0.02 ± 0.00 %IA/g | Biodistribution, Pancreas ([1]; 72 h pi): 0.03 ± 0.00 %IA/g | Biodistribution, Spleen ([1]; 72 h pi): 0.51 ± 0.71 %IA/g | Biodistribution, Stomach ([1]; 72 h pi): 0.05 ± 0.01 %IA/g | Biodistribution, Blood ([1]; 96 h pi): 0.04 ± 0.00 %IA/g | Biodistribution, CCK2i4svR(+) Tumor ([1]; 96 h pi): 0.56 ± 0.25 %IA/g | Biodistribution, CCK2i4svR(-) Tumor ([1]; 96 h pi): 0.11 ± 0.04 %IA/g | Biodistribution, Femur ([1]; 96 h pi): 0.05 ± 0.01 %IA/g | Biodistribution, Heart ([1]; 96 h pi): 0.04 ± 0.00 %IA/g | Biodistribution, Intestines ([1]; 96 h pi): 0.08 ± 0.05 %IA/g | Biodistribution, Kidneys ([1]; 96 h pi): 0.10 ± 0.04 %IA/g | Biodistribution, Liver ([1]; 96 h pi): 0.19 ± 0.02 %IA/g | Biodistribution, Lungs ([1]; 96 h pi): 0.17 ± 0.02 %IA/g | Biodistribution, Muscle ([1]; 96 h pi): 0.02 ± 0.01 %IA/g | Biodistribution, Pancreas ([1]; 96 h pi): 0.03 ± 0.01 %IA/g | Biodistribution, Spleen ([1]; 96 h pi): 0.14 ± 0.02 %IA/g | Biodistribution, Stomach ([1]; 96 h pi): 0.05 ± 0.01 %IA/g | Background clearance / excretion route ([1]; mouse, in vivo): rapid background clearance predominantly via the kidneys | Intact radioligand in blood ([2]; mice blood collected 5 min pi): 81.1 ± 8.2 (3) % | Intact radioligand in urine ([2]; mice urine collected 30 min pi): 79.2 ± 10.3 (3) %
